According to patent US8716324B2, “Tricyclic indeno-pyrrole derivatives as serotonin receptor modulators” (Athersys, Inc., priority 2004, dated 2014):

Molecular target: human 5HT2c receptor (VSV Isoform) (Homo sapiens, UniProt P28335, I156V/I160V/N158S)
Assay: cell-based
Settings: 5-HT2c EC50 (hVSV, μM)

Chain of human 5HT2c receptor (VSV Isoform) (P28335 33-458 I156V/N158S/I160V limits assumed): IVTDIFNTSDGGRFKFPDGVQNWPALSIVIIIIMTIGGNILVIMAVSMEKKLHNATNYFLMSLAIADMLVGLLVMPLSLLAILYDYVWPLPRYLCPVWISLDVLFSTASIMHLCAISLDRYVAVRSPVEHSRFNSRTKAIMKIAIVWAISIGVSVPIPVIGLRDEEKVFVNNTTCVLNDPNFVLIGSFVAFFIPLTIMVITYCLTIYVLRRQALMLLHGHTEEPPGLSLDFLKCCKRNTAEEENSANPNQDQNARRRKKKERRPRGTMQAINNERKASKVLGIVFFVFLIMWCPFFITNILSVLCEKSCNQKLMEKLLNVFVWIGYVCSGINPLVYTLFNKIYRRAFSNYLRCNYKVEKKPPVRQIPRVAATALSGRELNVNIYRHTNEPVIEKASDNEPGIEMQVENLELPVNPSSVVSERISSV

`COc1cc2c(cc1Br)C(C)C1CNCC21` (single isomer, unassigned) [30, Enantiomer 2] and `COc1cc2c(cc1C#N)C(C)C1CNCC21` (single isomer, unassigned) [33, Enantiomer 2] cannot be ordered by EC50: under 0.01 µM for the first, under 1 µM for the second.

`CC1c2ccc(O)cc2C2CNCC12` (stereo not shown) [Example 2, 5-Hydroxy-8-methyl-1,2,3,3a,8,8a-hexahydroindeno[1,2-c]pyrrole] and `CC1c2cc(F)ccc2C2CNCC12` (stereo not shown) [Example 19, 6-Fluoro-8-methyl-1,2,3,3a,8,8a-hexahydroindeno[1,2-c]pyrrole] cannot be ordered by EC50: under 0.1 µM for the first, under 1 µM for the second.

`CC1c2cc(Cl)c(O)cc2C2CNCC12` (single isomer, unassigned) [4, Enantiomer 2] and `Cc1cc2c(cc1Cl)C(C)C1CNCC21` (single isomer, unassigned) [21, Enantiomer 1] cannot be ordered by EC50: under 0.1 µM for the first, under 1 µM for the second.

`COc1ccc2c(c1Cl)C1CNCC1C2C` (single isomer, unassigned) [25, Enantiomer 2] and `COc1c(Cl)cc2c(c1Cl)C1CNCC1C2C` (single isomer, unassigned) [38, Enantiomer 2] cannot be ordered by EC50: under 1 µM for the first, under 0.1 µM for the second.

`CC1c2ccc(OCc3ccc(F)cc3)cc2C2CNCC12` (single isomer, unassigned) [46, Enantiomer 2] and `CC1c2ccc(OCc3cccc(F)c3)cc2C2CNCC12` (single isomer, unassigned) [45, Enantiomer 2] cannot be ordered by EC50: under 10 µM for the first, under 10 µM for the second.

`CC1c2cc(Cl)c(OCc3ccccc3F)cc2C2CNCC12` (stereo not shown) [Example 8, 5-(2-Fluorobenzyloxy)-6-chloro-8-methyl-1,2,3,3a,8,8a-hexahydroindeno[1,2-c]pyrrole] and `CC1c2cc(Cl)c(OCc3cccc(F)c3)cc2C2CNCC12` (stereo not shown) [Example 9, 5-(3-Fluorobenzyloxy)-6-chloro-8-methyl-1,2,3,3a,8,8a-hexahydroindeno[1,2-c]pyrrole] cannot be ordered by EC50: under 10 µM for the first, under 10 µM for the second.

`c1ccc2c(c1)CC1CNCC21` (stereo not shown) [Example 10, 1,2,3,3a,8,8a-Hexahydroindeno[1,2-c]pyrrole] and `CC1c2cccc(F)c2C2CNCC12` (stereo not shown) [Example 17, 4-Fluoro-8-methyl-1,2,3,3a,8,8a-hexahydroindeno[1,2-c]pyrrole] cannot be ordered by EC50: under 10 µM for the first, under 10 µM for the second.

`Cc1cc2c(cc1Cl)C1CNCC1C2C` (single isomer, unassigned) [23, Enantiomer 1] and `Cc1cc2c(cc1Cl)C(C)C1CNCC21` (stereo not shown) [Example 21, 5-Methyl-6-chloro-8-methyl-1,2,3,3a,8,8a-hexahydroindeno[1,2-c]pyrrole] cannot be ordered by EC50: under 1 µM for the first, under 0.1 µM for the second.

`CC1c2ccc(O)cc2C2CNCC12` (single isomer, unassigned) [2, Enantiomer 2] and `Cc1ccc2c(c1)C(C)C1CNCC21` (stereo not shown) [Example 15, 6-Methyl-8-methyl-1,2,3,3a,8,8a-hexahydroindeno[1,2-c]pyrrole] cannot be ordered by EC50: under 0.1 µM for the first, under 1 µM for the second.

`CC1c2cc(Cl)c(OCc3ccc(F)cc3)cc2C2CNCC12` (stereo not shown) [Example 6, 5-(4-Fluorobenzyloxy)-6-chloro-8-methyl-1,2,3,3a,8,8a-hexahydroindeno[1,2-c]pyrrole] and `CC1c2cc(Cl)c(O)cc2C2CNCC12` (stereo not shown) [Example 4, 5-Hydroxy-6-chloro-8-methyl-1,2,3,3a,8,8a-hexahydroindeno[1,2-c]pyrrole] cannot be ordered by EC50: under 1 µM for the first, under 1 µM for the second.

`COc1c(Cl)cc2c(c1OC)C1CNCC1C2C` (single isomer, unassigned) [35, Enantiomer 1] and `COc1c(Cl)cc2c(c1Cl)C1CNCC1C2C` (stereo not shown) [Example 38, 4,6-Dichloro-5-Methoxy-8-methyl-1,2,3,3a,8,8a-hexahydroindeno[1,2-c]pyrrole] cannot be ordered by EC50: under 0.1 µM for the first, under 0.1 µM for the second.

`CC1c2c(ccc(Cl)c2Cl)C2CNCC12` (single isomer, unassigned) [27, Enantiomer 1] and `Cc1cc2c(cc1Cl)C(C)C1CNCC21` (single isomer, unassigned) [21, Enantiomer 2] cannot be ordered by EC50: under 1 µM for the first, under 0.1 µM for the second.

In the case of `COc1cc2c(cc1-c1cccs1)C(C)C1CNCC21` (single isomer, unassigned) [32, Enantiomer 2], the EC50 is reported as over 10 µM.
